# ChEMBL document CHEMBL3994639, “Identification of novel ROS inducer by merging the fragments of piperlongumine and dicoumarol” (Bioorg Med Chem Lett, 2017)
# Calls of active or inactive are those of the source. The rule behind the calls is not given here.
# Experiments:
# [1] = tested on: A549; assay: Cytotoxicity against human A549 cells assessed as growth inhibition after 72 hrs by MTT assay; type: functional, cell-based; conditions: A549, 72 h
# [2] = tested on: HCT-116; assay: Cytotoxicity against human HCT116 cells assessed as growth inhibition after 72 hrs by MTT assay; type: functional, cell-based; conditions: HCT-116, 72 h
# [3] = tested on: HepG2; assay: Cytotoxicity against human HepG2 cells assessed as growth inhibition after 72 hrs by MTT assay; type: functional, cell-based; conditions: HepG2, 72 h
# [4] = tested on: MRC5; assay: Cytotoxicity against human MRC5 cells after 72 hrs by MTT assay; type: cell-based; conditions: MRC5, 72 h
# [5] = Lipophilicity, log D of compound at pH 7.4; type: physicochemical; conditions: buffer
# [6] = Intrinsic solubility of the compound; type: physicochemical; conditions: read-out: Intrinsic_solubility
# [7] = Permeability of the compound at pH 7.4; type: physicochemical; conditions: not told, read-out: permeability
# [8] = tested on: A549; assay: Antitumor activity in human A549 cells xenografted in athymic nude mouse assessed as tumor growth inhibition at 5 mg/kg, ip administered every other day for 21 days; type: functional; conditions: 504 h, read-out: TGI
# [9] = tested on: A549; assay: Induction of apoptosis in human A549 cells assessed as nuclei condensation after 24 hrs by DAPI staining based immunofluorescence microscopic analysis; type: functional, cell-based
# [10] = tested on: Mus musculus; assay: Toxicity in human A549 cells xenografted athymic nude mouse assessed as body weight loss at 5 mg/kg, ip administered every other day for 21 days; type: organism-based; conditions: in vivo, 504 h
SMILES,IC50 [1] [µM],IC50 [2] [µM],IC50 [3] [µM],IC50 [4] [µM],logD [5],solubility [6] [µg/mL],Papp [7] [×10⁻⁶ cm/s],inhibition in vivo at 5 mg/kg [8] [%],Activity [9],Activity [10]
O=C1C=CCCN1C(=O)/C=C/c1c(O)c2ccccc2oc1=O,12,15,6.7,22,–,–,–,–,–,–
O=C1CCCCN1C(=O)CCc1c(O)c2ccccc2oc1=O,> 90,> 90,> 90,58,–,–,–,–,–,–
Cc1cc2oc(=O)c(/C=C/C(=O)N3CCC=CC3=O)c(O)c2cc1C,15,5.1,7.8,35,–,–,–,–,–,–
COc1cc(/C=C/C(=O)N2CCC=CC2=O)cc(OC)c1OC [PIPLARTINE],10,9.2,8.9,37,2.84,0.75,24.6,41.2,–,–
CC(C)NCC(O)COc1cccc2ccccc12 (configuration not stated) [PROPRANOLOL],–,–,–,–,–,–,117,–,–,–
O=C1C=CCCN1C(=O)/C=C/c1c(O)c2ccc(Cl)cc2oc1=O,6.5,12,15,19,–,–,–,–,–,–
COc1ccc2c(O)c(/C=C/C(=O)N3CCC=CC3=O)c(=O)oc2c1,11,18,12,31,–,–,–,–,–,–
O=C1C=CCCN1C(=O)/C=C/c1c(O)c2ccc(F)cc2oc1=O,18,11,9.7,8.9,–,–,–,–,–,–
COc1cc2c(O)c(/C=C/C(=O)N3CCC=CC3=O)c(=O)oc2c(OC)c1OC,4.2,3.2,5.7,57,–,316,20.2,48.5,Active,Non-Toxic
CC(C(=O)O)c1cccc(C(=O)c2ccccc2)c1 (configuration not stated) [KETOPROFEN],–,–,–,–,–,–,1.98,–,–,–
COc1ccc2oc(=O)c(/C=C/C(=O)N3CCC=CC3=O)c(O)c2c1,9.8,10,7.1,53,–,–,–,–,–,–
